Results as given in US8247211B2, “Glycopeptide antibiotics” (American Cyanamid Company, priority 2001, dated 2012).
In brackets after ≈: the same amount, converted by molar mass.

Assays:
Assay in all cases: In vitro antibacterial evaluation: minimum inhibitory concentration (MIC), broth dilution method
Format in all cases: cell-based
[1] = test system: Staphylococcus sp.; conditions: for MIC Staphylococcus aureus (ATCC 29213) / MIC Staphylococcus aureus (GC 1131) / MIC Staphylococcus aureus (GC 3051) / MIC Staphylococcus aureus (GC 3053) / MIC Staphylococcus aureus (GC 4541) / MIC Staphylococcus aureus (GC 4542) / MIC Staphylococcus aureus (GC 4544) / MIC Staphylococcus aureus (GC 4545): broth dilution, 18 hours at 35° C.
Procedure, shortened: (§1)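 Susceptibility determined by NCCLS-recommended broth dilution (M7-A2), Muller-Hinton II […]. Concentration span 64-0.06 μg/mL, inoculum 5×10^5 CFU/mL. Isolates include strains resistant to methicillin, penicillin and/or vancomycin.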

[2] = test system: Escherichia coli
Procedure, shortened: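 Using Muller-Hinton II […] and an inoculum of 5×10^5 CFU/mL, antibiotic dilutions from 64 down to 0.06 μg/mL were tested following NCCLS M7-A2. The MIC is the lowest concentration inhibiting growth, including in methicillin-, penicillin- or vancomycin-resistant clinical isolates.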

[3] = test system: Streptococcus sp.
Procedure, shortened: as §1

[4] = test system: Enterococcus sp.
Procedure, shortened: as §1

[5] = broth dilution, inoculum 5×10^5 CFU/mL, 18 hours at 35° C.

MIC Staphylococcus aureus (ATCC 29213) ([1]; 5×10^5 CFU/mL): >64 µg/mL
MIC Staphylococcus aureus (GC 1131) ([1]; 5×10^5 CFU/mL): >64 µg/mL
MIC Staphylococcus aureus (GC 3051) ([1]; 5×10^5 CFU/mL): >64 µg/mL
MIC Staphylococcus aureus (GC 3053) ([1]; 5×10^5 CFU/mL): >64 µg/mL
MIC Staphylococcus aureus (GC 4541) ([1]; 5×10^5 CFU/mL): >64 µg/mL
MIC Staphylococcus aureus (GC 4542) ([1]; 5×10^5 CFU/mL): >64 µg/mL
MIC Staphylococcus aureus (GC 4544) ([1]; 5×10^5 CFU/mL): >64 µg/mL
MIC Staphylococcus aureus (GC 4545) ([1]; 5×10^5 CFU/mL): >64 µg/mL
MIC Staphylococcus aureus (ATCC 29213) ([1]; strain ATCC 29213): >64 µg/mL
MIC Staphylococcus aureus (GC 1131) ([1]; strain GC 1131): >64 µg/mL
MIC Staphylococcus aureus (GC 3051) ([1]; strain GC 3051): >64 µg/mL
MIC Staphylococcus aureus (GC 3053) ([1]; strain GC 3053): >64 µg/mL
MIC Staphylococcus aureus (GC 4541) ([1]; strain GC 4541): >64 µg/mL
MIC Staphylococcus aureus (GC 4542) ([1]; strain GC 4542): >64 µg/mL
MIC Staphylococcus aureus-SMITH (GC 4543) ([1]; strain GC 4543): >64 µg/mL
MIC Staphylococcus aureus (GC 4544) ([1]; strain GC 4544): >64 µg/mL
MIC Staphylococcus aureus (GC 4545) ([1]; strain GC 4545): >64 µg/mL
MIC Coagulase Negative Staphylococcus (GC 4547) ([1]; strain GC 4547): >64 µg/mL
MIC Coagulase Negative Staphylococcus (GC 4548) ([1]; strain GC 4548): >64 µg/mL
MIC Coagulase Negative Staphylococcus (GC 4549) ([1]; strain GC 4549): >64 µg/mL
MIC Coagulase Negative Staphylococcus (GC 4551) ([1]; strain GC 4551): >64 µg/mL
MIC Coagulase Negative Staphylococcus (GC 6257) ([1]; strain GC 6257): >64 µg/mL
MIC Escherichia coli (ATCC 25922) ([2]; strain ATCC 25922): >64 µg/mL
MIC Escherichia coli (GC 4559) ([2]; strain GC 4559): >64 µg/mL
MIC Escherichi coli (GC 4560) ([2]; strain GC 4560): >64 µg/mL
MIC Streptococcus agalactiae (GC 4564) [3, 5]: 32 µg/mL (≈ 20.9 µM)
MIC Streptococcus pneumoniae (ATCC 6301) [3, 5]: 4 µg/mL (≈ 2.61 µM)
MIC Streptococcus pneumoniae (GC 1894) [3, 5]: 8 µg/mL (≈ 5.21 µM)
MIC Streptococcus pneumoniae (GC 4565) [3, 5]: 8 µg/mL (≈ 5.21 µM)
MIC Streptococcus pyogenes (GC 4563) [3, 5]: 64 µg/mL (≈ 41.7 µM)
MIC Streptococcus pneumoniae (ATCC 6301) ([3]; strain ATCC 6301): 4 µg/mL (≈ 2.61 µM)
MIC Streptococcus pneumoniae (GC 1894) ([3]; strain GC 1894): 8 µg/mL (≈ 5.21 µM)
MIC Streptococcus pyogenes (GC 4563) ([3]; strain GC 4563): 64 µg/mL (≈ 41.7 µM)
MIC Streptococcus agalactiae (GC 4564) ([3]; strain GC 4564): 32 µg/mL (≈ 20.9 µM)
MIC Streptococcus pneumoniae (GC 4565) ([3]; strain GC 4565): 8 µg/mL (≈ 5.21 µM)
MIC Enterococcus avium (GC 4558) [4, 5]: >64 µg/mL
MIC Enterococcus faecalis (ATCC 29212) [4, 5]: >64 µg/mL
MIC Enterococcus faecalis (GC 2242) [4, 5]: >64 µg/mL
MIC Enterococcus faecalis (GC 2691) [4, 5]: >64 µg/mL
MIC Enterococcus faecalis (GC 3059) [4, 5]: >64 µg/mL
MIC Enterococcus faecalis (GC 4552) [4, 5]: >64 µg/mL
MIC Enterococcus faecalis (GC 4553) [4, 5]: >64 µg/mL
MIC Enterococcus faecalis (GC 4554) [4, 5]: >64 µg/mL
MIC Enterococcus faecalis (GC 6189) [4, 5]: >64 µg/mL
MIC Enterococcus faecium (GC 2243) [4, 5]: >64 µg/mL
MIC Enterococcus faecium (GC 4556) [4, 5]: >64 µg/mL
MIC Enterococcus faecium (GC 4557) [4, 5]: >64 µg/mL
MIC Enterococcus faecalis (ATCC 29212) ([4]; strain ATCC 29212): >64 µg/mL
MIC Enterococcus faecalis (GC 2242) ([4]; strain GC 2242): >64 µg/mL
MIC Enterococcus faecium (GC 2243) ([4]; strain GC 2243): >64 µg/mL
MIC Enterococcus faecalis (GC 2691) ([4]; strain GC 2691): >64 µg/mL
MIC Enterococcus faecalis (GC 3059) ([4]; strain GC 3059): >64 µg/mL
MIC Enterococcus faecalis (GC 4552) ([4]; strain GC 4552): >64 µg/mL
MIC Enterococcus faecalis (GC 4553) ([4]; strain GC 4553): >64 µg/mL
MIC Enterococcus faecalis (GC 4554) ([4]; strain GC 4554): >64 µg/mL
MIC Enterococcus faecium (GC 4556) ([4]; strain GC 4556): >64 µg/mL
MIC Enterococcus faecium (GC 4557) ([4]; strain GC 4557): >64 µg/mL
MIC Enterococcus avium (GC 4558) ([4]; strain GC 4558): >64 µg/mL
MIC Enterococcus faecalis (GC 6189) ([4]; strain GC 6189): >64 µg/mL
SMILES: CC(c1ccccc1)C1NC(=O)CNC(=O)C(CO)NC(=O)C(C(O)C2CNC(=N)N2C2OC(CO)C(O)C(O)C2O)NC(=O)C(C(O)C2CNC(=N)N2)NC(=O)C(Cc2ccc(OC3OC(CO)C(OC4OC5COC(c6cccc(OCc7ccc([N+](=O)[O-])cc7)c6)OC5C(O)C4O)C(O)C3O)cc2)NC1=O (stereo not drawn) [Example 182, Cyclo[glycyl-β-methylphenylalanyl-O-[4-O-[4,6-O-(3-[[(4-nitrophenyl)methoxy]benzylidene]hexopyranosyl]hexopyranosyl]tyrosyl-3-(2-iminoimidazolidin-4-yl)seryl-3-β-hexopyranosyl-2-iminoimidazolidin-4-yl)serylseryl]]
MIC Staphylococcus haemolyticus (GC 4546) ([1]; strain GC 4546): >64 µg/mL
